Experimental data published in PubChem BioAssay (NCI).
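Briefly, cells in 96-well plates were exposed to five compound concentrations for 48 h, and endpoints were estimated by linear interpolation. TGI is the concentration that stops growth completely.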

Tests used:
Test in all cases: inhibition of tumour cell growth, NCI panel, 48 h
NCI-H23 lung = tested on: NCI-H23 lung
SF-295 CNS = tested on: SF-295 CNS
RPMI-8226 leukemia = tested on: RPMI-8226 leukemia
MCF7 breast = tested on: MCF7 breast
CCRF-CEM leukemia = tested on: CCRF-CEM leukemia
UACC-62 melanoma = tested on: UACC-62 melanoma
NCI-H460 lung = tested on: NCI-H460 lung
SF-268 CNS = tested on: SF-268 CNS
SK-MEL-2 melanoma = tested on: SK-MEL-2 melanoma
HCT-116 colon = tested on: HCT-116 colon
A498 renal = tested on: A498 renal
EKVX NSCLC = tested on: EKVX NSCLC
KM12 colon = tested on: KM12 colon
M14 melanoma = tested on: M14 melanoma
OVCAR-3 ovarian = tested on: OVCAR-3 ovarian
T-47D breast = tested on: T-47D breast
SNB-75 CNS = tested on: SNB-75 CNS
HOP-92 NSCLC = tested on: HOP-92 NSCLC
COLO 205 colon = tested on: COLO 205 colon
NCI-H226 lung = tested on: NCI-H226 lung
HT29 colon = tested on: HT29 colon
DU-145 prostate = tested on: DU-145 prostate
HS 578T breast = tested on: HS 578T breast
LOX IMVI melanoma = tested on: LOX IMVI melanoma
HCT-15 colon = tested on: HCT-15 colon
ACHN renal = tested on: ACHN renal
RXF 393 renal = tested on: RXF 393 renal
SK-MEL-5 melanoma = tested on: SK-MEL-5 melanoma
CAKI-1 renal = tested on: CAKI-1 renal
A549 NSCLC = tested on: A549 NSCLC
HL-60(TB) leukemia = tested on: HL-60(TB) leukemia
PC-3 prostate = tested on: PC-3 prostate
SR leukemia = tested on: SR leukemia
OVCAR-8 ovarian = tested on: OVCAR-8 ovarian
IGROV1 ovarian = tested on: IGROV1 ovarian
SK-MEL-28 melanoma = tested on: SK-MEL-28 melanoma
MOLT-4 leukemia = tested on: MOLT-4 leukemia
SNB-19 CNS = tested on: SNB-19 CNS
MDA-MB-435 = tested on: MDA-MB-435
HCC-2998 colon = tested on: HCC-2998 colon
SF-539 CNS = tested on: SF-539 CNS
SN12C renal = tested on: SN12C renal
MDA-MB-231 breast = tested on: MDA-MB-231 breast
HOP-62 NSCLC = tested on: HOP-62 NSCLC
UACC-257 melanoma = tested on: UACC-257 melanoma
OVCAR-5 ovarian = tested on: OVCAR-5 ovarian
NCI-H522 lung = tested on: NCI-H522 lung
SK-OV-3 ovarian = tested on: SK-OV-3 ovarian
MDA-N = tested on: MDA-N
OVCAR-4 ovarian = tested on: OVCAR-4 ovarian
U251 CNS = tested on: U251 CNS
786-0 renal = tested on: 786-0 renal
UO-31 renal = tested on: UO-31 renal
K-562 leukemia = tested on: K-562 leukemia
MALME-3M melanoma = tested on: MALME-3M melanoma
TK-10 renal = tested on: TK-10 renal
SW-620 colon = tested on: SW-620 colon
BT-549 breast = tested on: BT-549 breast

CCN(CC)CC1CCCCN1CC(=O)N1c2ccc(Br)cc2C(=O)Nc2cccnc21 (stereo not drawn)
TGI (NCI-H23 lung): > 100 µM
TGI (SF-295 CNS): > 100 µM
TGI (RPMI-8226 leukemia): > 100 µM
TGI (MCF7 breast): > 100 µM
TGI (CCRF-CEM leukemia): > 100 µM
TGI (UACC-62 melanoma): > 100 µM
TGI (NCI-H460 lung): > 100 µM
TGI (SF-268 CNS): > 100 µM
TGI (SK-MEL-2 melanoma): > 100 µM
TGI (HCT-116 colon): > 100 µM
TGI (A498 renal): > 100 µM
TGI (EKVX NSCLC): > 100 µM
TGI (KM12 colon): > 100 µM
TGI (M14 melanoma): > 100 µM
TGI (OVCAR-3 ovarian): > 100 µM
TGI (T-47D breast): > 100 µM
TGI (SNB-75 CNS): 59.4 µM
TGI (HOP-92 NSCLC): > 100 µM
TGI (COLO 205 colon): > 100 µM
TGI (NCI-H226 lung): > 100 µM
TGI (HT29 colon): > 100 µM
TGI (DU-145 prostate): > 100 µM
TGI (HS 578T breast): > 100 µM
TGI (LOX IMVI melanoma): > 100 µM
TGI (HCT-15 colon): > 100 µM
TGI (ACHN renal): > 100 µM
TGI (RXF 393 renal): > 100 µM
TGI (SK-MEL-5 melanoma): > 100 µM
TGI (CAKI-1 renal): > 100 µM
TGI (A549 NSCLC): > 100 µM
TGI (HL-60(TB) leukemia): > 100 µM
TGI (PC-3 prostate): > 100 µM
TGI (SR leukemia): > 100 µM
TGI (OVCAR-8 ovarian): > 100 µM
TGI (IGROV1 ovarian): > 100 µM
TGI (SK-MEL-28 melanoma): > 100 µM
TGI (MOLT-4 leukemia): > 100 µM
TGI (SNB-19 CNS): > 100 µM
TGI (MDA-MB-435): > 100 µM
TGI (HCC-2998 colon): > 100 µM
TGI (SF-539 CNS): > 100 µM
TGI (SN12C renal): > 100 µM
TGI (MDA-MB-231 breast): > 100 µM
TGI (HOP-62 NSCLC): > 100 µM
TGI (UACC-257 melanoma): > 100 µM
TGI (OVCAR-5 ovarian): > 100 µM
TGI (NCI-H522 lung): > 100 µM
TGI (SK-OV-3 ovarian): > 100 µM
TGI (MDA-N): > 100 µM
TGI (OVCAR-4 ovarian): > 100 µM
TGI (U251 CNS): > 100 µM
TGI (786-0 renal): > 100 µM
TGI (UO-31 renal): 44.8 µM
TGI (K-562 leukemia): > 100 µM
TGI (MALME-3M melanoma): > 100 µM
TGI (TK-10 renal): > 100 µM

C=C(Cl)C(Br)(CCl)CCC(Cl)C(C)C (stereo not drawn) (tested in a mixture with another compound)
TGI (NCI-H23 lung): 3.79 µM
TGI (SF-295 CNS): 19.6 µM
TGI (CCRF-CEM leukemia): > 100 µM
TGI (UACC-62 melanoma): 2.59 µM
TGI (NCI-H460 lung): 3.42 µM
TGI (SF-268 CNS): 3.53 µM
TGI (SK-MEL-2 melanoma): 2.97 µM
TGI (SW-620 colon): 2.96 µM
TGI (HCT-116 colon): 3.92 µM
TGI (A498 renal): 31.6 µM
TGI (EKVX NSCLC): 29.6 µM
TGI (KM12 colon): 3.55 µM
TGI (M14 melanoma): 3.87 µM
TGI (OVCAR-3 ovarian): 5.15 µM
TGI (SNB-75 CNS): 2.35 µM
TGI (HOP-92 NSCLC): 3.46 µM
TGI (COLO 205 colon): 5 µM
TGI (NCI-H226 lung): 13.6 µM
TGI (HT29 colon): 2.75 µM
TGI (DU-145 prostate): 3.25 µM
TGI (HS 578T breast): 7.48 µM
TGI (LOX IMVI melanoma): 1.23 µM
TGI (ACHN renal): 3.98 µM
TGI (RXF 393 renal): 3.93 µM
TGI (SK-MEL-5 melanoma): 3.9 µM
TGI (CAKI-1 renal): 7.54 µM
TGI (A549 NSCLC): 31.9 µM
TGI (BT-549 breast): 3.19 µM
TGI (PC-3 prostate): 10.6 µM
TGI (SR leukemia): > 100 µM
TGI (IGROV1 ovarian): 3.73 µM
TGI (SK-MEL-28 melanoma): 3.21 µM
TGI (MOLT-4 leukemia): 48 µM
TGI (SNB-19 CNS): 10.7 µM
TGI (MDA-MB-435): 3.67 µM
TGI (HCC-2998 colon): 10.7 µM
TGI (SF-539 CNS): 3.72 µM
TGI (SN12C renal): 3.08 µM
TGI (MDA-MB-231 breast): 2.49 µM
TGI (HOP-62 NSCLC): 4.76 µM
TGI (UACC-257 melanoma): 3.27 µM
TGI (OVCAR-5 ovarian): 6.69 µM
TGI (NCI-H522 lung): 2.95 µM
TGI (SK-OV-3 ovarian): 8.85 µM
TGI (MDA-N): 3.45 µM
TGI (OVCAR-4 ovarian): 3.82 µM
TGI (U251 CNS): 3.14 µM
TGI (786-0 renal): 2.74 µM
TGI (UO-31 renal): 3.01 µM
TGI (K-562 leukemia): 24.2 µM
TGI (MALME-3M melanoma): 7.07 µM
TGI (TK-10 renal): 4.05 µM
